Test results: patent US20120190703A1, “SALTS OF 13A-(S)DESOXYTYLOPHORININE, PREPARATION METHODS AND PHARMACEUTICAL COMPOSITIONS AND USES THEREOF” (priority 2009, published 2012)
“And” between values parts separate entries of the source, which are not always exact repeats. Identical values can stand only once. Counter-ions that a name gives are not always drawn. Like-named read-outs stand apart in the source and are kept apart here. Marks after values point to notes of the source that are not given here.

Key:
[1] = Solubility in water; type: physicochemical; details: for solubility: water
[2] = system: H22 tumor-bearing mice
Text: To determine the pharmacodynamic characters of 13a-(S)-deoxytylophorinine and its salts, the impact of these compounds to the tumor growth in H22 tumor-bearing mice was surveyed.
Male Kunming mice were obtained from the Laboratory Animal Center, Academy of Military Medical Science. Body weight 18˜22 g. 6 animals per group, totally 10 groups, 60 animals.
(+)-13a-(S)-deoxytylophorinine, (+)-13a-(S)-deoxytylophorinine Tartrate, (+)-13a-(S)-deoxytylophorinine Maleate, (+)-13a-(S)-deoxytylophorinine Citrate, Cytoxane (CTX) as positive control.
(+)-13a-(S)-deoxytylophorinine was administered at high dose (5 mg/kg) and low dose (2.5 mg/kg). Three (+)-13a-(S)-deoxytylophorinine salts were administered at high dose and low dose as equal moles with their prototype (Tartrate: 7.05 mg/kg, 3.53 mg/kg; Malate: 6.60 mg/kg, 3.30 mg/kg; Citrate: 7.90 mg/kg, 3.95 mg/kg).
(§1) Animals were reared in SPF grade circumstance to be observed for 24 h. The tumor cells liquid which resuscitated in abdominal cavity of KM mice was diluted with aseptic normal saline at 1:3 ratio. The resulting liquid was inoculated subcutaneously at forelimb with 0.2 mL every animal. After the injection over, the animals were divided to 12 groups with 6 animals per group.
Four experimental samples were intragastric administered once daily 24 h after inoculation. The positive control CTX was intraperitoneal injected once daily. The animal body weight was recorded every day.

[3] = Plasma pharmacokinetics after oral administration in mice
Procedure: To determine the pharmacokinetic characters of 13a-(S)-deoxytylophorinine and its salts, the studies about plasma pharmacokinetics and the character of distribution in brain were pursued.
(§2) Male ICR mice. Body weight 18˜22 g.
(+)-13a-(S)-deoxytylophorinine Tartrate, (+)-13a-(S)-deoxytylophorinine Maleate, (+)-13a-(S)-deoxytylophorinine Citrate. All were dissolved in distilled water as 0.6 mg/ml solution before experiment progressed.
72 mice were divided to 3 groups with 24 animals per group, fasting for 16 h and drinking water freely. […] Plasma was isolated by centrifugalization. After the salts were administered orally, the brain tissues of mice were collected at 5 min, 15 min, 2 h time points. 25% tissue homogenate was prepared with normal saline addition. 200 μL of homogenate and plasma were added isovolumic MeCN to precipitate protein. 5 μL of clear supernatant was analyzed by LC/MS/MS.
(+)-13a-(S)-deoxytylophorinine was dissolved in DMSO and then diluted with MeOH with concentration 10, 50, 100, 500, 1000 and 2500 ng/ml respectively. 10 μl of standard solutions of (+)-13a-(S)-deoxytylophorinine with different concentration above were added to 200 μl of blank plasma sequently to adjust the concentration to 0.5, 2.5, 5, 25, 50, 125 ng/ml respectively. MeCN was added to the solution to precipitate protein, and 5 μl of result clear supernatant was analyzed with LC/MS/MS. Linear regression was ran with the peak area of (+)-13a-(S)-deoxytylophorinine as ordinate and the concentrations as abscissa.

[4] = Drug distribution in brain tissue after oral administration in mice; type: in vivo, ICR mice; details: for Brain contents of (+)-13a-(S)-deoxytylophorinine (ng/ml), Mean ± SD / Brain contents of (+)-13a-(S)-deoxytylophorinine (ng/ml), individual animals 1-3: 6 mg/kg oral
Procedure: as §2
Plasma was isolated by centrifugalization. […] 25% tissue homogenate was prepared with normal saline addition.
The drug concentration-time data in brain tissue after administered orally of (+)-13a-(S)-deoxytylophorinine tartrate, maleate and citrate were represented in Table 8˜10 and FIG. 6˜8. […] (+)-13a-(S)-deoxytylophorinine could be detected in 5 min. The peak concentration was reached after 15 min, and the compound still can be detected after 2 h after administration.

[5] = system: H22 tumor-bearing mice; remark: listed apart in the source
Procedure: To observe the impact of 13a-(S)-deoxytylophorinine Sulfate: on the tumor growth of H22 tumor-bearing mice.
Male Kunming mice were obtained from the Laboratory Animal Center, Academy of Military Medical Science. Body weight 18˜22 g.
(+)-13a-(S)-deoxytylophorinine Sulfate, Cytoxane (CTX) as positive control.
All the samples were administered orally. o.d. 0.2 ml/10 g.
(+)-13a-(S)-deoxytylophorinine Sulfate was administered at five dose groups: 3 mg/kg, 4 mg/kg, 5 mg/kg, 6 mg/kg and 8 mg/kg.
as §1, with “KM species” for “KM”, “13 groups. Experimental samples were administered 24 h after inoculation.” for “12 groups with 6 animals per group.”

[6] = high dose × 7 d, intragastric once daily, equal moles: prototype 5.0, tartrate 7.05, maleate 6.60, citrate 7.90 mg/kg
[7] = low dose × 7 d, intragastric once daily, equal moles: prototype 2.5, tartrate 3.53, maleate 3.30, citrate 3.95 mg/kg
[8] = 6 mg/kg oral, mice, Time (min) 0.5
[9] = 6 mg/kg oral, mice, Time (min) 1
[10] = male, ICR, mouse, plasma, po, 6 mg/kg

## COc1ccc2c3c(c4cc(OC)c(OC)cc4c2c1)CN1CCC[C@H]1C3.O=C(O)CC(O)(CC(=O)O)C(=O)O [Citrate, (+)-13a-(S)-deoxytylophorinine Citrate]
[1]
  Solubility in water (words): soluble in water
  solubility: 33 mg/mL
[2]; [6]
  Animal No. (Initial/Final): 6/5
  Body Weight(g) Final: 14.27 ± 2.61 g
  Body Weight(g) Initial: 22.00 ± 1.55 g⁻¹
  Inhibition (%): 80.44** %
  Tumor Weight (g, mean ± SD): 0.22 ± 0.13 g
[2]; [7]
  Animal No. (Initial/Final): 6/6
  Body Weight(g) Final: 21.01 ± 2.04 g
  Body Weight(g) Initial: 21.83 ± 0.75 g⁻¹
  Inhibition (%): 46.87* %
  Tumor Weight (g, mean ± SD): 0.61 ± 0.35 g
[3]; 6 mg/kg oral, mice
  Peak concentration in blood: 20.1 ± 12.2 ng/mL
  Time of peak concentration in blood: 15 min
[3]; 6 mg/kg oral, mice, plasma, non-compartment model
  t½z: 51.6 min
[3]; [8]
  Blood concentration of (+)-13a-(S)-deoxytylophorinine (ng/ml), Mean ± SD: 12.6 ± 6.5 ng/mL
  Blood concentration of (+)-13a-(S)-deoxytylophorinine (ng/ml), individual animals 1-3: 20.1 ng/mL and 8.4 ng/mL and 9.3 ng/mL
[3]; [9]
  Blood concentration of (+)-13a-(S)-deoxytylophorinine (ng/ml), Mean ± SD: 8.4 ± 2.9 ng/mL
  Blood concentration of (+)-13a-(S)-deoxytylophorinine (ng/ml), individual animals 1-3: 11.2 ng/mL and 5.4 ng/mL and 8.5 ng/mL
[3]; [10]
  AUC(0-inf): 33.1 ng·h/mL
  AUC(0-t): 32.7 ng·h/mL
  Cmax: 20.1 ng/mL
  MRT inf: 2.29 h
  MRT last: 1.73 h
  Tmax: 15 min
[4]; Time (min) 5
  Brain contents of (+)-13a-(S)-deoxytylophorinine (ng/ml), Mean ± SD: 23.6 ± 12.7 ng/mL
  Brain contents of (+)-13a-(S)-deoxytylophorinine (ng/ml), individual animals 1-3: 22.0 ng/mL and 37.1 ng/mL and 11.8 ng/mL
[4]; Time (min) 15
  Brain contents of (+)-13a-(S)-deoxytylophorinine (ng/ml), Mean ± SD: 87.3 ± 50.1 ng/mL
  Brain contents of (+)-13a-(S)-deoxytylophorinine (ng/ml), individual animals 1-3: 84.8 ng/mL and 138.7 ng/mL and 38.5 ng/mL
[4]; Time (min) 120
  Brain contents of (+)-13a-(S)-deoxytylophorinine (ng/ml), Mean ± SD: 48.7 ± 14.1 ng/mL
  Brain contents of (+)-13a-(S)-deoxytylophorinine (ng/ml), individual animals 1-3: 37.0 ng/mL and 44.8 ng/mL and 64.4 ng/mL
[4]; oral, 3 time points
  Drug contents in brain compared with prototype: lower than its prototype

## COc1ccc2c3c(c4cc(OC)c(OC)cc4c2c1)CN1CCC[C@H]1C3 [Sulfate, (+)-13a-(S)-deoxytylophorinine Sulfate]
[1]
  solubility: 200 mg/mL
[5]; 3 mg/kg × 7, oral (o.p.)
  Animal No. (Initial/Final): 6/6
  Body Weight(g) Final: 26.83 ± 2.56 g
  Body Weight(g) Initial: 20.67 ± 0.52 g⁻¹
  Inhibition (%): 22.49* %
  Tumor Weight (g, mean ± SD): 0.98 ± 0.21 g
[5]; 4 mg/kg × 7, oral (o.p.)
  Animal No. (Initial/Final): 6/6
  Body Weight(g) Final: 22.83 ± 2.40 g
  Body Weight(g) Initial: 20.00 ± 1.26 g⁻¹
  Inhibition (%): 52.51* %
  Tumor Weight (g, mean ± SD): 0.60 ± 0.32 g
[5]; 5 mg/kg × 7, oral (o.p.)
  Animal No. (Initial/Final): 6/6
  Body Weight(g) Final: 22.17 ± 5.31 g
  Body Weight(g) Initial: 19.83 ± 1.72 g⁻¹
  Inhibition (%): 41.75* %
  Tumor Weight (g, mean ± SD): 0.73 ± 0.39 g
[5]; 6 mg/kg orally
  Deaths of mice (table note): After (+)-13a-(S)-deoxytylophorinine Sulfate (6 mg/kg) was administered orally, one of mice died on sixth day, two of mice died on seventh day. Stop administion.
[5]; 6 mg/kg × 6, oral (o.p.)
  Animal No. (Initial/Final): 6/3
  Body Weight(g) Final: 15.33 ± 3.21 g
  Body Weight(g) Initial: 19.83 ± 1.72 g⁻¹
  Inhibition (%): 68.52** %
  Tumor Weight (g, mean ± SD): 0.40 ± 0.24 g
[5]; 8 mg/kg orally
  Deaths of mice (table note): After (+)-13a-(S)-deoxytylophorinine Sulfate (8 mg/kg) was administered orally, one of mice died on sixth day, two of mice died on seventh day. Stop administion.
[5]; 8 mg/kg × 6, oral (o.p.)
  Animal No. (Initial/Final): 6/0
  Body Weight(g) Initial: 20.67 ± 1.03 g⁻¹
  Inhibition (%): 88.49** %
  Tumor Weight (g, mean ± SD): 0.15 ± 0.04 g

## O=P1(N(CCCl)CCCl)NCCCO1 (stereo not drawn) [CTX, Cytoxan, reference compound]
[2]; 100 mg/kg × 1, i.p.
  Animal No. (Initial/Final): 6/6
  Body Weight(g) Final: 23.77 ± 1.38 g
  Body Weight(g) Initial: 21.33 ± 1.63 g⁻¹
  Inhibition (%): 48.47* %
  Tumor Weight (g, mean ± SD): 0.59 ± 0.26 g
[5]; 100 mg/kg × 1, i.p.
  Animal No. (Initial/Final): 6/6
  Body Weight(g) Final: 25.00 ± 2.37 g
  Body Weight(g) Initial: 20.67 ± 2.07 g⁻¹
  Inhibition (%): 94.76** %
  Tumor Weight (g, mean ± SD): 0.07 ± 0.04 g
